Source: patent publication US9302999B2, “Substituted triazoles as herbicides” (E. I. DU PONT DE NEMOURS AND COMPANY, priority 2012, dated 2016)

Assays:
Assay type in all cases: in vivo
Details in all cases: Preemergence, scale 0 to 100
[1] = system: poinsettia, wild (wild poinsettia, Euphorbia heterophylla); experiment: Test E pre-/postemergence: poinsettia, wild
Description: (§1) Seeds of plant species selected from corn (Zea mays), soybean (Glycine max), velvetleaf (Abutilon theophrasti), lambsquarters (Chenopodium album), poinsettia, wild (wild poinsettia, Euphorbia heterophylla), pigweed, palmer (palmer pigweed, Amaranthus palmeri), waterhemp (common waterhemp, Amaranthus rudis), smartweed (ladysthumb smartweed, Polygonum persicaria), surinam grass (Brachiaria decumbens), crabgrass, large (large crabgrass, Digitaria sanguinalis), crabgrass, Brazil (Brazilian crabgrass, Digitaria horizontalis), panicum, fall (fall panicum, Panicum dichotomiflorum), foxtail, giant (giant foxtail, Setaria faberii), foxtail, green (green foxtail, Setaria viridis), goosegrass (Eleusine indica), johnsongrass (Sorghum halepense), ragweed (common ragweed, Ambrosia elation), barnyardgrass (Echinochloa crus-galli), sandbur (southern sandbur, Cenchrus echinatus), arrowleaf sida (Sida rhombifolia), ryegrass, Italian (Italian ryegrass, Lolium multiflorum), dayflower, (VA) (Virginia dayflower, Commelina virginica), field bindweed (Convolvulus arvensis), cocklebur (common cocklebur, Xanthium strumarium), morningglory (Ipomoea coccinea), nightshade (eastern black nightshade, Solanum ptycanthum), kochia (Kochia scoparia), nutsedge, yellow (yellow nutsedge, Cyperus esculentus) and beggarticks (hairy beggarticks, Bidens pilosa) were planted into a silt loam soil and treated preemergence with test chemicals formulated in a non-phytotoxic solvent mixture which included a surfactant. At the same time, plants selected from these crop and weed species were planted in pots containing a growing medium comprising spaghnum peat moss, vermiculite, wetting agent and starter nutrients and treated with postemergence applications of some of the test chemicals formulated in the same manner. Plants ranged in height from 2 to 18 cm for postemergence treatments (1- to 4-leaf stage).
(§2) Treated plants and controls were maintained in a greenhouse for 14 to 21 days, after which time all species were compared to controls and visually evaluated. Plant response ratings, summarized in Table E, are based on a scale of 0 to 100 where 0 is no effect and 100 is complete control. A dash (-) response means no test result.

[2] = system: crabgrass, large (large crabgrass, Digitaria sanguinalis); experiment: Test E pre-/postemergence: crabgrass, large
Description: as §1, §2

[3] = system: crabgrass, Brazil (Brazilian crabgrass, Digitaria horizontalis); experiment: Test E pre-/postemergence: crabgrass, Brazil
Description: as §1, §2

[4] = system: foxtail, giant (giant foxtail, Setaria faberii); experiment: Test E pre-/postemergence: foxtail, giant
Description: as §1, §2

[5] = system: johnsongrass (Sorghum halepense); experiment: Test E pre-/postemergence: johnsongrass
Description: as §1, §2

[6] = system: barnyardgrass (Echinochloa crus-galli); experiment: Test E pre-/postemergence: barnyardgrass
Description: as §1, §2

[7] = system: morningglory (Ipomoea coccinea); experiment: Test E pre-/postemergence: morningglory
Description: as §1, §2

[8] = system: nightshade (eastern black nightshade, Solanum ptycanthum); experiment: Test E pre-/postemergence: nightshade
Description: as §1, §2

## FC(F)(F)COc1nn(-c2ccc(C(F)(F)F)cc2)nc1Cc1ccnc(C(F)(F)F)c1 [Compound 14, 4-[[5-(2,2,2-trifluoroethoxy)-2-[4-(trifluoromethyl)phenyl]-2H-1,2,3-triazol-4-yl]methyl]-2-(trifluoromethyl)pyridine]
[1]; 16 g ai/ha
  Plant response rating: Poinsettia, Wild: 15
[1]; 31 g ai/ha
  Plant response rating: Poinsettia, Wild: 25
[1]; 62 g ai/ha
  Plant response rating: Poinsettia, Wild: 50
[1]; 125 g ai/ha
  Plant response rating: Poinsettia, Wild: 65
[1]; 250 g ai/ha
  Plant response rating: Poinsettia, Wild: 75
[2]; 16 g ai/ha
  Plant response rating: Crabgrass, Large: 65
[2]; 31 g ai/ha
  Plant response rating: Crabgrass, Large: 75
[2]; 62 g ai/ha
  Plant response rating: Crabgrass, Large: 95
[2]; 125 g ai/ha
  Plant response rating: Crabgrass, Large: 100
[2]; 250 g ai/ha
  Plant response rating: Crabgrass, Large: 100
[3]; 16 g ai/ha
  Plant response rating: Crabgrass, Brazil: 60
[3]; 31 g ai/ha
  Plant response rating: Crabgrass, Brazil: 75
[3]; 62 g ai/ha
  Plant response rating: Crabgrass, Brazil: 100
[3]; 125 g ai/ha
  Plant response rating: Crabgrass, Brazil: 100
[3]; 250 g ai/ha
  Plant response rating: Crabgrass, Brazil: 100
[4]; 16 g ai/ha
  Plant response rating: Foxtail, Giant: 50
[4]; 31 g ai/ha
  Plant response rating: Foxtail, Giant: 75
[4]; 62 g ai/ha
  Plant response rating: Foxtail, Giant: 98
[4]; 125 g ai/ha
  Plant response rating: Foxtail, Giant: 100
[4]; 250 g ai/ha
  Plant response rating: Foxtail, Giant: 100
[5]; 16 g ai/ha
  Plant response rating: Johnsongrass: 10
[5]; 31 g ai/ha
  Plant response rating: Johnsongrass: 20
[5]; 62 g ai/ha
  Plant response rating: Johnsongrass: 70
[5]; 125 g ai/ha
  Plant response rating: Johnsongrass: 90
[5]; 250 g ai/ha
  Plant response rating: Johnsongrass: 95
[6]; 16 g ai/ha
  Plant response rating: Barnyardgrass: 5
[6]; 31 g ai/ha
  Plant response rating: Barnyardgrass: 15
[6]; 62 g ai/ha
  Plant response rating: Barnyardgrass: 35
[6]; 125 g ai/ha
  Plant response rating: Barnyardgrass: 60
[6]; 250 g ai/ha
  Plant response rating: Barnyardgrass: 60
[7]; 16 g ai/ha
  Plant response rating: Morningglory: 0
[7]; 31 g ai/ha
  Plant response rating: Morningglory: 20
[7]; 62 g ai/ha
  Plant response rating: Morningglory: 35
[7]; 125 g ai/ha
  Plant response rating: Morningglory: 75
[7]; 250 g ai/ha
  Plant response rating: Morningglory: 75
[8]; 16 g ai/ha
  Plant response rating: Nightshade: 35
[8]; 31 g ai/ha
  Plant response rating: Nightshade: 60
[8]; 62 g ai/ha
  Plant response rating: Nightshade: 98
[8]; 125 g ai/ha
  Plant response rating: Nightshade: 98
[8]; 250 g ai/ha
  Plant response rating: Nightshade: 98

## COc1nn(-c2ccc(C(F)(F)F)cc2)nc1Cc1ccnc(C(F)(F)F)c1 [Compound 15, 4-[[5-methoxy-2-[4-(trifluoromethyl)phenyl]-2H-1,2,3-triazol-4-yl]methyl]-2-(trifluoromethyl)pyridine]
[1]; 16 g ai/ha
  Plant response rating: Poinsettia, Wild: 30
[1]; 31 g ai/ha
  Plant response rating: Poinsettia, Wild: 30
[1]; 62 g ai/ha
  Plant response rating: Poinsettia, Wild: 65
[1]; 125 g ai/ha
  Plant response rating: Poinsettia, Wild: 75
[1]; 250 g ai/ha
  Plant response rating: Poinsettia, Wild: 80
[2]; 16 g ai/ha
  Plant response rating: Crabgrass, Large: 15
[2]; 31 g ai/ha
  Plant response rating: Crabgrass, Large: 90
[2]; 62 g ai/ha
  Plant response rating: Crabgrass, Large: 100
[2]; 125 g ai/ha
  Plant response rating: Crabgrass, Large: 100
[2]; 250 g ai/ha
  Plant response rating: Crabgrass, Large: 100
[3]; 16 g ai/ha
  Plant response rating: Crabgrass, Brazil: 60
[3]; 31 g ai/ha
  Plant response rating: Crabgrass, Brazil: 98
[3]; 62 g ai/ha
  Plant response rating: Crabgrass, Brazil: 100
[3]; 125 g ai/ha
  Plant response rating: Crabgrass, Brazil: 100
[3]; 250 g ai/ha
  Plant response rating: Crabgrass, Brazil: 100
[4]; 16 g ai/ha
  Plant response rating: Foxtail, Giant: 65
[4]; 31 g ai/ha
  Plant response rating: Foxtail, Giant: 98
[4]; 62 g ai/ha
  Plant response rating: Foxtail, Giant: 100
[4]; 125 g ai/ha
  Plant response rating: Foxtail, Giant: 100
[4]; 250 g ai/ha
  Plant response rating: Foxtail, Giant: 100
[5]; 16 g ai/ha
  Plant response rating: Johnsongrass: 10
[5]; 31 g ai/ha
  Plant response rating: Johnsongrass: 65
[5]; 62 g ai/ha
  Plant response rating: Johnsongrass: 65
[5]; 125 g ai/ha
  Plant response rating: Johnsongrass: 98
[5]; 250 g ai/ha
  Plant response rating: Johnsongrass: 100
[6]; 16 g ai/ha
  Plant response rating: Barnyardgrass: 10
[6]; 31 g ai/ha
  Plant response rating: Barnyardgrass: 50
[6]; 62 g ai/ha
  Plant response rating: Barnyardgrass: 85
[6]; 125 g ai/ha
  Plant response rating: Barnyardgrass: 98
[6]; 250 g ai/ha
  Plant response rating: Barnyardgrass: 100
[7]; 16 g ai/ha
  Plant response rating: Morningglory: 10
[7]; 31 g ai/ha
  Plant response rating: Morningglory: 50
[7]; 62 g ai/ha
  Plant response rating: Morningglory: 50
[7]; 125 g ai/ha
  Plant response rating: Morningglory: 65
[7]; 250 g ai/ha
  Plant response rating: Morningglory: 65
[8]; 16 g ai/ha
  Plant response rating: Nightshade: 5
[8]; 31 g ai/ha
  Plant response rating: Nightshade: 35
[8]; 62 g ai/ha
  Plant response rating: Nightshade: 98
[8]; 125 g ai/ha
  Plant response rating: Nightshade: 98
[8]; 250 g ai/ha
  Plant response rating: Nightshade: 100
